# Source: PMC8301452, “Targeting of Protein Kinase CK2 in Acute Myeloid Leukemia Cells Using the Clinical-Grade Synthetic-Peptide CIGB-300” (Biomedicines, 2021)
# Bridge positions count the residues as written; N and C are the ends. Square brackets hold non-standard residues; d marks the D form. Peptide text beside a SMILES is read from it. βAla = NCCC(=O)O
# What was measured:
# [1] = tested on: HL-60 cells transduced with LV-pLG or LV-shRNA; test: PI staining cytotoxicity in NPM1 knock-down cells; assay type: cell-based, Human; settings: 20 or 40 µM, 5 h, n = 3
# Procedure: Cells were infected with HIV-based third-generation lentiviral particles according to experimental conditions previously described. […]. After virus production and subsequent titration, cells were infected by spinoculation in the presence of polybrene (8 µg/mL) and at 10× multiplicity of infection. On the next day, fresh medium was added, and the cells were allowed to recover for another 48 h. Finally, infected cells were analyzed by flow cytometry and Western blot for evaluation of GFP expression and NPM1 protein levels, respectively.
# Figure 4 Lentiviral vector-mediated knock-down of NPM1 in AML cells: (A) Flow cytometry analysis of GFP expression in transduced HL-60 cells at day 7 post-infection. Percentage of GFP+ cells was determined on live-cell population (R1 gate in dot plots); (B) Immunoblots from HL-60 transduced cells showing NPM1 protein knock-down in LV-shRNA infected cells. Densitometry analysis values of NPM1 bands were normalized to β-actin and then to untransduced cells; (C) GFP expression levels and (D) viability of transduced HL-60 cells were followed by flow cytometry during three weeks post-infection; (E) Sensibility of transduced cells toward the cytotoxic effect of CIGB-300 was evaluated by PI staining. Cells were incubated with 20 or 40 µM of CIGB-300 for 5 h, stained with PI solution, and then analyzed by flow cytometry. […]
# HL-60 cells [2] = test: Cell cycle analysis by PI staining and flow cytometry; assay type: cell-based, Human; settings: 40 µM, 24 h
# Procedure: (§1) For cell cycle analysis, AML cells were incubated with 40 µM CIGB-300 during 24 h. Following treatment with the peptide, cells were collected by centrifugation, washed with PBS, and fixed at 4 °C for 30 min with ice-cold 70% ethanol. After fixation, cells were treated with DNase-free RNase A (Sigma, St. Louis, MO, USA) and subsequently stained at 37 °C for 20 min with 50 µg/mL PI solution (Sigma, St. Louis, MO, USA). Stained cells were analyzed in the abovementioned Partec CyFlow Space flow cytometry, and FlowJo Software (v7.6.1) was used for data processing and visualization.
# OCI-AML3 cells = test: as above; assay type: cell-based, Human; settings: 40 µM, 24 h
# Procedure: as §1
# [3] = tested on: primary cells from AML patients' bone marrow samples; test: Annexin V/PI staining, flow cytometry; assay type: cell-based, Human; settings: primary cells from the majority of AML patients' bone marrow samples; 40 µM, 48 h
# Description: Bone marrow samples from five AML patients with high leukemia involvement were collected in accordance with the Declaration of Helsinki after informed consent and ethical approval of the Clinical Research Board from the Center for Genetic Engineering and Biotechnology (CIGB, Havana, Cuba) (Table S1). Mononuclear cells from bone marrow samples were isolated using Ficoll-Paque (GE Healthcare, Chicago, IL, USA) density gradient centrifugation. Cells were maintained under standard cell culture conditions.
# Viability of AML cells was measured using FITC Annexin V Apoptosis Detection Kit I (BD Biosciences, San Jose, CA, USA). Briefly, cell lines were incubated with 40 µM CIGB-300 for 3 and 5 h, while primary cells were incubated during 48 h. Following incubation, cells were washed twice with cold PBS and resuspended in binding buffer (1×) at a final concentration of 1 × 10^6 cells/mL. Subsequently, 5 µL of FITC Annexin V and PI were added, and cell suspensions were incubated for 15 min at room temperature in the dark. Flow cytometric analysis of stained cells was performed in Partec CyFlow Space instrument (Sysmex Partec GmbH, Gorlitz, Germany), and FlowJo software (v7.6.1) (BD, Ashland, OR, USA) was used for data analysis and visualization.
# [4] = tested on: chronic and acute T-cell lymphocytic leukemia (CLL and T-ALL); settings: read-out: IC50, estimated values; cited from earlier work
# Procedure: In contrast with solid tumor cells, which display a heterogenous sensitivity profile, leukemia cells are more sensitive to CIGB-300 anti-proliferative effects. Indeed, in a panel containing human lung, cervix, prostate, and colon cancer cell lines, the IC50 values for CIGB-300 ranged between 20 and 300 µM [32], while in chronic and acute T-cell lymphocytic leukemia (CLL and T-ALL), the estimated values were all below 40 µM [34, 44].
# CK2α catalytic subunit = target: T1, CK2α catalytic subunit (Homo sapiens, UniProt P68400); test: In vivo pull-down followed by immunodetection; assay type: binding; settings: AML cells, immunoblot
# T1 construct: endogenous in cells
# Procedure: For in vivo pull-down assays, CIGB-300 with N-terminal biotin tag (CIGB-300-B) was added to AML cells at a final concentration of 40 µM and incubated for 30 min. Subsequently, cells were collected, washed, and lysed in hypotonic PBS solution (0.1×) containing 1 mM DTT (Sigma, St. Louis, MO, USA) and complete protease inhibitor (Roche, Basel, Switzerland) by eight freeze–thaw (liquid nitrogen/37 °C) cycles. Cellular lysates were cleared by centrifugation, and 300 µg of total protein was added to 30 µL of pre-equilibrated streptavidin–sepharose matrix (GE Healthcare, Chicago, IL, USA). Following 1 h at 4 °C, the matrix was collected by centrifugation and extensively washed with PBS solution (1×) containing 1 mM DTT. Proteins bound to streptavidin–sepharose matrix were digested with trypsin (Promega, Madison, WI, USA) during 16 h or eluted for western blot analysis. In parallel, untreated cells were subjected to the same experimental procedure to identify those proteins non-specifically bound to streptavidin–sepharose matrix.
# Cells were lysed in RIPA buffer containing protease/phosphatase inhibitor (Thermo Fisher Scientific, Waltham, MA, USA), and equal amounts of protein were resolved in 12.5% SDS-PAGE [46]. […]
# NPM1 S125 = test: Western blot of CK2-mediated NPM1 phosphorylation; assay type: cell-based, Human; settings: both AML cell lines (HL-60, OCI-AML3), 40 µM
# Procedure: Cells were lysed in RIPA buffer containing protease/phosphatase inhibitor (Thermo Fisher Scientific, Waltham, MA, USA), and equal amounts of protein were resolved in 12.5% SDS-PAGE [46]. Next, proteins were transferred to a nitrocellulose membrane and immunoblotted with the following antibodies according to instructions from the manufacturer: NPM1, p-NPM1 (S125), and CK2α (Abcam, Cambridge, United Kingdom) and β-actin (Sigma, St. Louis, MO, USA). Detection was performed with peroxidase-conjugated anti-mouse or anti-rabbit IgG (Sigma, St. Louis, MO, USA), and signal was developed using SuperSignal West Pico Chemiluminescent Substrate (Thermo Fisher Scientific, Waltham, MA, USA).
# Figure S2. CIGB-300 peptide impairs CK2-mediated phosphorylation of NPM1 in AML cells. Cells treated with
# 40 µM of CIGB-300 during the indicated times were analyzed by western blot using phospho-specific and total […]
# [5] = tested on: CK2 substrates in HL-60 cells; test: Phosphoproteomic analysis; assay type: cell-based, Human; settings: 40 µM, 30 min, three replicates
# Procedure: (§2) Sample preparation, phosphopeptide enrichment, and nanoLC-MS/MS for phosphoproteomic analysis of AML cells treated or not with 40 µM CIGB-300 during 30 min were conducted as previously described. Briefly, three replicates from each condition were processed by multienzyme digestion filter-aided sample preparation (MED-FASP) with overnight lys-C and tryptic digestions and the phosphopeptides enriched by TiO2 chromatography. Phosphopeptides were later injected through an EASY-nLC 1200 system into a QExactive HF mass spectrometer (Thermo Scientific, USA) using a home-made column ([…], 20 cm length), and were separated with a gradient from 5% buffer B (0.1% formic acid in acetonitrile) up to 30% in 45 min, 30–60% in 5 min, and 60–95% in 5 min more.
# (§3) Data processing and quantification were performed in MaxQuant software (v1.6.2.10) and Perseus computational platform (v1.6.2.2). Phosphopeptides dataset was filtered of reverse and potential contaminants hits, and only phosphosites with localization probability above 0.75 were retained for further analysis. Additionally, only those phosphopeptides represented in each group were considered, and differences in phosphosites occupancy higher than 25% were selected as significant changes. Enzyme–substrate relations were retrieved using post-translational modification resource iPTMnet and web-based tool KEA2 [48, 49]. In addition to well-documented substrates, we searched for candidate CK2 substrates based on the presence of the CK2 consensus sequence, the enzyme–substrate predictions retrieved from NetworKIN database, the dataset of high confidence CK2 substrates reported by Bian et al., and the phosphoproteins that interact with protein kinase CK2 according to the Metascape database.
# [6] = tested on: CK2 substrates in OCI-AML3 cells; test: Phosphoproteomic analysis; assay type: cell-based, Human; settings: 40 µM, 30 min, three replicates
# Procedure: as §2, §3
# HL-60 cells [7] = tested on: HL-60 cells; set-up: method as in PMID 24283803, PMID 33562780; settings: cited from earlier work
# T1 sequence (P68400 whole entry): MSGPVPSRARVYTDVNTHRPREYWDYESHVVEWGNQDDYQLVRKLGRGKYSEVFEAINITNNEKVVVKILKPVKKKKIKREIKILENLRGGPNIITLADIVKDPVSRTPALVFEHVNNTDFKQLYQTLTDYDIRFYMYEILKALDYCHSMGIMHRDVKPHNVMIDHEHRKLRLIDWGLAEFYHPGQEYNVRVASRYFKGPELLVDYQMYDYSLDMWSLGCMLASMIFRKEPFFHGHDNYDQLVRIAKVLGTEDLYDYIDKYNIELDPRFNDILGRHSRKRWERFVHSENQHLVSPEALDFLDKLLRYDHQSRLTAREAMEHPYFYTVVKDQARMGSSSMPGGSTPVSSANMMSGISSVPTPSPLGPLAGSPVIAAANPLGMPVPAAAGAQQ
smiles,measurement,setting,value
CSCC[C@@H]1NC(=O)[C@H](Cc2c[nH]c3ccccc23)NC(=O)[C@@H](NC(=O)CCNC(=O)[C@H](CCC(N)=O)NC(=O)[C@@H]2CCCN2C(=O)[C@@H]2CCCN2C(=O)[C@H](CCCNC(=N)N)NC(=O)[C@H](CCCNC(=N)N)NC(=O)[C@H](CCCNC(=N)N)NC(=O)[C@H](CCC(N)=O)NC(=O)[C@H](CCCNC(=N)N)NC(=O)[C@H](CCCNC(=N)N)NC(=O)[C@H](CCCCN)NC(=O)[C@H](CCCCN)NC(=O)[C@H](CCCNC(=N)N)NC(=O)CN)CSSC[C@@H](C(=O)O)NC(=O)[C@H]([C@@H](C)O)NC(=O)CNC(=O)[C@H](CC(C)C)NC(=O)[C@H](Cc2c[nH]cn2)NC(=O)[C@H](CCCNC(=N)N)NC(=O)[C@@H]2CCCN2C(=O)[C@H](CO)NC1=O [CIGB-300] (H-GRKKRRQRRRPPQ[βAla]CWMSPRHLGTC-OH; disulfide 15-25; N-terminus and C-terminus assumed),"sensibility toward cytotoxic effect, LV-shRNA (NPM1 knock-down roughly 85%) vs LV-pLG",[1],no differential sensibility
same,effect on cell cycle progression,HL-60 cells [2],accumulation of HL-60 cells in S phase
same,effect on cell cycle progression,OCI-AML3 cells,no change in cell cycle distribution
same,effect on viability (Annexin V-FITC/PI),[3],promoted apoptosis
same,IC50,[4],< 40 µM
same,interaction with CK2α subunit,CK2α catalytic subunit,clear interaction
same,CK2-mediated phosphorylation at S125 residue of NPM1,NPM1 S125,inhibition of CK2-mediated phosphorylation
same,"Occupancy Treated–Control, ABCF1 S140 (Q8NE71)",[5],−0.2693 ^2
same,"Occupancy Treated–Control, AP3B1 S276 (O00203)",[5],−0.427
same,"Occupancy Treated–Control, BCLAF1 S397 (Q9NYF8)",[5],−0.2902 ^1
same,"Occupancy Treated–Control, C1orf52 S158 (Q8N6N3)",[5],−0.3645
same,"Occupancy Treated–Control, DDX24 S82 (Q9GZR7)",[5],−0.3284
same,"Occupancy Treated–Control, DKC1 S485 (O60832)",[5],−0.3777
same,"Occupancy Treated–Control, DKC1 S494 (O60832)",[5],−0.3312 ^1
same,"Occupancy Treated–Control, EIF3C S39 (Q99613)",[5],−0.2738 ^2
same,"Occupancy Treated–Control, EIF4G1 S1198 (Q04637)",[5],−0.276
same,"Occupancy Treated–Control, FKBP15 S346 (Q5T1M5)",[5],−0.25
same,"Occupancy Treated–Control, HIRIP3 S196 (Q9BW71)",[5],−0.2842
same,"Occupancy Treated–Control, HIRIP3 S199 (Q9BW71)",[5],−0.2649
same,"Occupancy Treated–Control, HMGA1 S44 (P17096)",[5],−0.3177
same,"Occupancy Treated–Control, LEMD3 S144 (Q9Y2U8)",[5],−0.3252
same,"Occupancy Treated–Control, LYN S13 (P07948)",[5],−0.3987
same,"Occupancy Treated–Control, M6PR S267 (P20645)",[5],−0.26
same,"Occupancy Treated–Control, MCM2 S41 (P49736)",[5],−0.421 ^2
same,"Occupancy Treated–Control, NAP1L4 S125 (Q99733)",[5],−0.3398
same,"Occupancy Treated–Control, PABPC1 T319 (P11940)",[5],−0.2931
same,"Occupancy Treated–Control, PAK2 T169 (Q13177)",[5],−0.2963
same,"Occupancy Treated–Control, PNN S381 (Q9H307)",[5],−0.2998
same,"Occupancy Treated–Control, SEPTIN2 S218 (Q15019)",[5],"−0.2677 ^1, 2"
same,"Occupancy Treated–Control, SRSF11 S464 (Q05519)",[5],−0.3301
same,"Occupancy Treated–Control, ST13 S75 (P50502)",[5],−0.2852
same,"Occupancy Treated–Control, STMN1 S63 (P16949)",[5],−0.3357 ^2
same,"Occupancy Treated–Control, THRAP3 S211 (Q9Y2W1)",[5],−0.2914
same,"Occupancy Treated–Control, TMPO S66 (P42166)",[5],−0.4836
same,"Occupancy Treated–Control, TMPO S67 (P42166)",[5],−0.4836
same,"Occupancy Treated–Control, TOP2A S1106 (P11388)",[5],−0.2854
same,"Occupancy Treated–Control, XRCC6 S520 (P12956)",[5],−0.3763
same,"Occupancy Treated–Control, BCLAF1 S397 (Q9NYF8)",[6],−0.3056 ^1
same,"Occupancy Treated–Control, BRCA1 S1164 (P38398)",[6],−0.3932
same,"Occupancy Treated–Control, CEP170 S1112 (Q5SW79)",[6],−0.4366
same,"Occupancy Treated–Control, DKC1 S494 (O60832)",[6],−0.2948 ^1
same,"Occupancy Treated–Control, EIF5B S214 (O60841)",[6],−0.2868
same,"Occupancy Treated–Control, HNRNPC S220 (P07910)",[6],−0.4698
same,"Occupancy Treated–Control, HNRNPC S225 (P07910)",[6],−0.4597
same,"Occupancy Treated–Control, MCM2 S13 (P49736)",[6],−0.4061 ^2
same,"Occupancy Treated–Control, MCM2 S139 (P49736)",[6],−0.3422 ^2
same,"Occupancy Treated–Control, NAP1L4 S7 (Q99733)",[6],−0.2719
same,"Occupancy Treated–Control, NOP56 S520 (O00567)",[6],−0.3705
same,"Occupancy Treated–Control, SEPTIN2 S218 (Q15019)",[6],"−0.4261 ^1, 2"
same,"Occupancy Treated–Control, SRSF11 S433 (Q05519)",[6],−0.3794
same,"Occupancy Treated–Control, STT3B S499 (Q8TCJ2)",[6],−0.3445
same,"Occupancy Treated–Control, TOP2A S1247 (P11388)",[6],−0.3351
same,"Occupancy Treated–Control, TOP2B S1550 (Q02880)",[6],−0.2936
O=C(O)c1ccc2c(c1)nc(Nc1cccc(Cl)c1)c1ccncc12 [CX-4945],response toward cytotoxic effect,HL-60 cells [7],refractoriness
